# Assay results: patent US20210338782A1, “STORAGE STABLE SOMATOSTATIN-DOPAMINE CHIMERIC COMPOUNDS AND SALT FORMS THEREOF” (Cydan II, Inc., priority 2019, published 2021)
# Structures can show the parent of a compound that is named as a salt.
# Legend:
# Type in all cases: physicochemical
# [1] = Solid state (thermolytic) stability of TBR-760 salt forms, open container, UPLC peak purity and appearance
# Procedure: (§1) Each TBR-760 salt was further evaluated for thermolytic stability over time by setting up three different exposure conditions (25° C. at 60% relative humidity (RH); 40° C. at 75% RH; or 60° C. with open and closed container systems (open dish/closed dish). Approximately 50 mg of each salt form was weighed in a nitrogen-flushed glove box for use in the studies. All samples were stored at −20° C. in a good laboratory practice (GLP) freezer both before and after exposure to the indicated conditions.
# (§2) The stability of each salt form was assessed by monitoring the post-exposure drug peak purity and by evaluating the post-exposure visual appearance of the salt. The samples were removed from the exposure conditions and allowed to equilibrate to ambient conditions for 15-20 mins. An appropriate amount of each sample was weighed for analysis and dissolved in diluent (deionized water containing 0.1% TFA) to obtain a stock concentration of 1 mg/mL. The stock solution was then diluted to 0.125 mg/mL in an HPLC vial using diluent and the samples were run on a Waters Acquity UPLC system using the parameters shown in Table 4.
# [2] = Photostability of alternative salt forms of lanreotide and TBR-760; conditions: 1.2 million lux hours visible light or 200 watt hours/square meter UV light, hydrochloride salt
# Description: (§3) In order to evaluate the light sensitivity and stability of TBR-760 chimeric peptide salts, all five salt forms were exposed to ultraviolet (UV) and visible light according to International Council for Harmonisation of Technical Requirements for Pharmaceuticals for Human Use (ICH) guideline Q1B for photostability testing. In brief, a Caron 6540-1 photostability chamber unit with separate UV and light chambers was used for the studies. Visible light exposure was 1.2 million lux hours and UV exposure was 200 watt hours/square meter.
# Photostability of lanreotide acetate, lanreotide bromide, lanreotide chloride, TBR-760 acetate, TBR-760 bromide and TBR760 chloride was tested according to the methods of Example 7. Four samples were prepared for each salt form: one control for each of the UV and visible light exposure conditions (controls isolated from light) and one sample for exposure to each of the UV and visible light conditions. For each sample, 2-5 mg of the salt was weighed into 3 mL clear serum vials and stoppered. Vials containing control samples were wrapped in aluminum foil.
# Following exposure to visible and UV light, all lanreotide and TBR-760 salts were analyzed by UPLC as described in Example 7.
# [3] = Thermostability of alternative salt forms of lanreotide and TBR-760 (UPLC); conditions: for thermostability in words: increasing temperature and humidity (25° C./60% RH, 40° C./75% RH, 60° C.) up to 4 weeks
# Procedure: as §1, §2
# We conducted thermostability studies of lanreotide acetate substantially as described in Example 6. These experiments confirmed that lanreotide acetate is […] when exposed to increasing temperature and humidity conditions over time (FIG. 45). […] (FIG. 45). This degree of thermal and humidity instability is disfavored for a pharmaceutical agent, particularly one intended for patient self-administration at home.
# To determine whether a thermostable salt form of TBR-760 could be manufactured, a salt exchange was performed as described in Example 1 to generate bromide and chloride salts of TBR-760. Lanreotide bromide and lanreotide chloride salts were also generated and assessed for thermostability to evaluate the effect of the salt form on compound stability and to compare stability of lanreotide and TBR-760 of each salt.
# UPLC assays performed as described in Example 6 were further used to determine the number of degradants—and thus the number of impurities—in each sample. Results showing the purity assessment of each sample following thermostability studies are shown in FIGS. 48A-48B (lanreotide and TBR-760 acetate salts), 49A-49B (lanreotide and TBR-760 bromide salts), and 50A-50B (lanreotide and TBR-760 chloride salts).
# [4] = Time and temperature stability of lyophilized TBR-760 salts in sealed glass vials (visual appearance, HPLC); conditions: for salt form degraded: sealed glass vials, HPLC, hydrochloride salt
# Procedure: Lyophilized TBR-760 salts prepared as described above were assessed for stability by visual appearance and HPLC following initial production of the salt and following incubation of the salt at 20° C., 40° C., and 60° C. for 2, 4, and 8 weeks in sealed, glass vials. Changes in visual appearance of the salt were noted by evaluating the color of the substance following each incubation condition. Purity of the salt following each incubation condition was evaluated by HPLC. The number and quantity of degradation products were determined according to the number of absorbance peaks that resulted at different retention times and the size of the peaks.
# [5] = Photostability of TBR-760 salt forms (ICH Q1B, visible and UV light), appearance and UPLC purity; conditions: for degradation upon exposure to visible or UV light, in words: visible and UV light
# Description: as §3
# Samples were placed in clear, sealed vials and stored in the appropriate chamber alongside dark controls in amber colored vials wrapped in aluminum foil. Control samples were stored in sealed amber vials at −20° C. The appearance of exposed samples was examined visually before being analyzed via UPLC.
# [6] = Thermogravimetric analysis (TGA) of TBR-760 salt forms; conditions: ramp 5.0° C. per minute from 25 to 400° C.; hydrochloride salt
# Procedure: Thermogravimetric analyses (TGA) were performed on all TBR-760 salt forms to evaluate thermal stability of each salt form. Studies were performed using a TGA-Q500 thermogravimetric analyzer (TA Instruments). The weight of each compound was measured while the temperature was increased at a ramp rate of 5.0° C. per minute from 25 to 400° C. […] The weight loss may be indicative of loss of adsorbed moisture, entrained solvent or volatile impurities. Decomposition of the compound appears to start at about 234° C. (sulfate salt), 245° C. (chloride salt), 252° C. (tosylate salt), and 255° C. (mesylate salt). For the acetate salt, a further ˜5% loss of weight between 110° C. and 200° C. was observed, indicating loss of volatile acetate ions over that temperature range (FIG. 8).
# [7] = 25° C. at 60% RH, open container
# [8] = 40° C. at 75% RH, open container
# [9] = 60° C., open dish, hydrochloride salt
# [10] = UPLC peak purity, 25° C. at 60% RH, open container, hydrochloride salt
# [11] = UPLC peak purity, 40° C. at 75% RH, open container, hydrochloride salt
# [12] = UPLC peak purity, 60° C., open dish, hydrochloride salt
# [13] = all thermostability conditions, UPLC
structure (smiles),measurement,setting,value
"CCCN1C[C@H](CSCC(=O)NCCCC[C@@H](NC(=O)CSC[C@@H]2C[C@@H]3c4cccc5[nH]cc(c45)C[C@H]3N(CCC)C2)C(=O)N[C@H]2CSSC[C@@H](C(=O)N[C@H](C(N)=O)[C@@H](C)O)NC(=O)[C@H](CC)NC(=O)[C@H](CCCCN)NC(=O)[C@@H](Cc3c[nH]c4ccccc34)NC(=O)[C@H](Cc3ccc(O)cc3)NC2=O)C[C@@H]2c3cccc4[nH]cc(c34)C[C@H]21 [TBR-760 chloride, Dop2-D-Lys(Dop2)-cyclo[Cys-Tyr-D-Trp-Lys-Abu-Cys]-Thr-NH2 hydrochloride salt]","Appearance, T = 2 wk",[1]; [7],White
same,"Appearance, T = 4 wk",[1]; [7],White
same,"Appearance, T = 3 d",[1]; [7],White
same,stability compared with the other salt forms,"[1]; 40° C. at 75% RH and 60° C., 2 and 4 weeks, hydrochloride salt",significantly more stable
same,"Appearance, T = 2 wk",[1]; [8],White
same,"Appearance, T = 4 wk","[1]; 40° C. at 75% RH, open container, hydrochloride salt",White
same,"Appearance, T = 3 d",[1]; [8],White
same,"Appearance, T = 2 wk",[1]; [9],White
same,"Appearance, T = 4 wk",[1]; [9],White
same,"Appearance, T = 3 d","[1]; 60° C., open dish",White
same,"Purity, T = 2 wk",[1]; [10],98.28
same,"Purity, T = 4 wk",[1]; [10],98.04
same,"Purity, T = 3 d",[1]; [10],98.44
same,"Purity, T = 2 wk",[1]; [11],97.62
same,"Purity, T = 4 wk",[1]; [11],97.78
same,"Purity, T = 3 d",[1]; [11],98.36
same,"Purity, T = 2 wk",[1]; [12],97.58
same,"Purity, T = 4 wk",[1]; [12],97.17
same,"Purity, T = 3 d",[1]; [12],98.45
same,"Purity, Control","[1]; UPLC peak purity, control, stored at -20° C., hydrochloride salt",98.31
same,"Appearance, Control","[1]; control, stored at -20° C.",White
same,additional degradants in chromatogram versus control,"[1]; two weeks at 60° C., open dish, UPLC, hydrochloride salt",two
same,visible appearance after exposure to visible and UV light,[2]; versus control,did not visibly change
same,photostability in words (UPLC purity),[2],as photostable as TBR-760 acetate
same,compound degraded,"[3]; 4 weeks at 60° C. and ambient humidity, hydrochloride salt",less than 0.6%
same,number of impurities compared with other TBR-760 salts,[3]; [13],fewer impurities
same,percent purity compared with other TBR-760 salts,[3]; [13],higher percent purity
same,thermostability in words,"[3]; listed as TBR-760 hydrochloride, hydrochloride salt",thermostable
same,thermostability in words,"[3]; listed as chloride salt form of TBR-760, hydrochloride salt",stable
same,change in visual appearance,[4]; 8 weeks at 60° C.,no change in the visual appearance
same,salt form degraded,[4]; 60° C. for 4 weeks,0.5%
same,salt form degraded,[4]; 60° C. for 8 weeks,less than 1%
same,"Purity, UV-exposed","[5]; UPLC, UV 200 watt hours/square meter, clear sealed vial, hydrochloride salt",97.06
same,"Purity, Control","[5]; UPLC, control in sealed amber vial at -20° C., hydrochloride salt",98.31
same,"Purity, Dark Ctrl-UV","[5]; UPLC, dark control in UV chamber, hydrochloride salt",98.37
same,"Purity, Dark Crtl-Light","[5]; UPLC, dark control in visible light chamber, hydrochloride salt",98.33
same,"Purity, Light-exposed","[5]; UPLC, visible light 1.2 million lux hours, clear sealed vial, hydrochloride salt",96.41
same,"stability following UV exposure, in words",[5]; UV 200 watt hours/square meter,"more stable following UV exposure than the acetate, mesylate, sulfate, or tosylate salts"
same,"Appearance, UV-exposed","[5]; UV 200 watt hours/square meter, clear sealed vial, listed as Chloride, hydrochloride salt",white
same,"Appearance, UV-exposed","[5]; UV 200 watt hours/square meter, clear sealed vial, listed as chloride salt, hydrochloride salt",remained unchanged
same,"Appearance, Control",[5]; control in sealed amber vial at -20° C.,white
same,"Appearance, Dark Ctrl-UV","[5]; dark control in UV chamber, amber vial wrapped in aluminum foil",white
same,"Appearance, Dark Crtl-Light","[5]; dark control in visible light chamber, amber vial wrapped in aluminum foil",white
same,"degradation upon exposure to visible or UV light, in words","[5]; UPLC, hydrochloride salt",more resistant to degradation than TBR-760 acetate
same,"degradation upon exposure to visible or UV light, in words","[5]; UPLC, listed as TBR-760 chloride salt, hydrochloride salt",more stable
same,"stability following light exposure, in words",[5]; visible light 1.2 million lux hours,significantly more stable than the TBR-760 acetate salt
same,"Appearance, Light-exposed","[5]; visible light 1.2 million lux hours, clear sealed vial, listed as Chloride, hydrochloride salt",white
same,"Appearance, Light-exposed","[5]; visible light 1.2 million lux hours, clear sealed vial, listed as chloride, hydrochloride salt",no visible discoloration
same,TGA start of decomposition,[6],~245 °C
